Measurements from patent publication US4818816A, “Process for the organic synthesis of oligosaccharides and derivatives thereof” (Choay, S.A., priority 1981, dated 1989).

What was measured:
Xa factor [1] = assay: anti-Xa activity, Yin-Wessler test; type: biochemical
blood coagulation = assay: APTT test, overall anticoagulant activity
AT III = assay: affinity for AT III; type: binding
Xa factor [2] = assay: anti-Xa test using a chromogen substrate (method of Teien A.M. and Lie modified); type: biochemical; settings: Xa factor (Sigma) 8 u/ml, substrate 1.33 mM, diluted human plasma, 37° C.
Procedure: In a test using a chromogen substrate, this activity has even been 4000 anti-Xa units/mg (method of Teien A.M. and Lie modified; Thrombosis Research No. 10, 1977, 388-410).
This test consists of using the Xa factor marketed by the Sigma company in solution at 8 u/ml in physiological serum, the concentration of the substrate being 1.33 mM.
To carry out this test it is possible to proceed as follows.
10 μl of solution to be determined and 300 μl of human plasma diluted with Tris maleate buffer 0.02M, […] are mixed.
It is left to incubate one minute at 37° C.
100 μl of the above-said Xa factor (8 u/ml) are added and one minute later, the solution obtained is injected into the substrate.

SMILES | anti-Xa activity (Yin-Wessler) (Xa factor [1]) [u/mg] | overall anticoagulant activity (APTT test) (blood coagulation) [u/mg] | affinity for AT III (AT III) | Yin-Wessler titres compared with those of heparin (Xa factor [1]; compared with heparin) | selective inhibition activity of the activated X factor or Xa factor of the blood (Xa factor [1]; test not specified) | anti-Xa activity in a test using a chromogen substrate (Xa factor [2]) [anti-Xa units/mg]
O=C(O)[C@H]1O[C@@H](O[C@H]2[C@H](OS(=O)(=O)O)[C@@H](NS(=O)(=O)O)C(O)O[C@@H]2COS(=O)(=O)O)[C@H](O)[C@@H](O)[C@@H]1O[C@H]1O[C@H](COS(=O)(=O)O)[C@@H](O)[C@H](O)[C@H]1NS(=O)(=O)O (stereo partly shown) | ~7 |  |  |  |  | 
O=C(O)[C@H]1O[C@@H](O[C@H]2[C@H](OS(=O)(=O)O)[C@@H](NS(=O)(=O)O)[C@@H](O[C@H]3[C@H](O)[C@@H](OS(=O)(=O)O)[C@H](O[C@H]4[C@H](O)[C@@H](NS(=O)(=O)O)C(O)O[C@@H]4COS(=O)(=O)O)O[C@H]3C(=O)O)O[C@@H]2COS(=O)(=O)O)[C@H](O)[C@@H](O)[C@@H]1O[C@H]1O[C@H](COS(=O)(=O)O)[C@@H](O)[C@H](O)[C@H]1NS(=O)(=O)O (stereo partly shown) [pentasaccharide 50] | ≥ 2000 | 4 | high affinity | distinctly higher | very high selective inhibition activity | 4000
